Each block holds one molecule with its values, some of them ahead of it.
How the values were obtained:
CYP2C8 = type: in vivo, human; details: increase in paclitaxel AUC and Cmax less than two-fold in the presence of pazopanib and lapatinib
[1] = pazopanib and lapatinib combination, daily; ref de Jonge et al, 2013; cited from earlier work
[2] = Plasma pharmacokinetics of paclitaxel, pazopanib and lapatinib in cycle 1; type: in vivo, human; details: for AUC(0-t) / Cmax / half-life / AUC(0-inf): human, plasma; for AUC(0-t): Lapatinib AUC(0–24)
CYP3A4 = type: in vivo, human; details: increase in paclitaxel AUC and Cmax less than two-fold in the presence of pazopanib and lapatinib
[3] = pazopanib in combination with paclitaxel; ref Tan et al, 2010; cited from earlier work
[4] = day 15 of cycle 1, paclitaxel 50 mg m^−2, pazopanib 400 mg, lapatinib 1000 mg, n=6, geometric mean (95% confidence interval)
[5] = day 15 of cycle 1, paclitaxel 50 mg m^−2, pazopanib 800 mg, lapatinib 1000 mg, n=3, median (range)
[6] = day 15 of cycle 1, paclitaxel 80 mg m^−2, pazopanib 400 mg, lapatinib 1000 mg, n=9, geometric mean (95% confidence interval)
[7] = day 15 of cycle 1, paclitaxel 80 mg m^−2, pazopanib 800 mg, lapatinib 1000 mg, n=1, individual value
[8] = patients receiving pazopanib 400 mg, lapatinib 1000 mg

- Inhibition of CYP2C8 (classification) (CYP2C8): weak inhibitors
- Pazopanib AUC(0–24) [2, 4]: 633 (279, 1436) μg*hr ml^−1
- Pazopanib Cmax [2, 4]: 31.7 (14.6, 68.8) μg ml^−1
- Pazopanib AUC(0–24) [2, 5]: 960 (736, 1620) μg*hr ml^−1
- Pazopanib Cmax [2, 5]: 48.9 (40.7, 80.9) μg ml^−1
- Pazopanib AUC(0–24) [2, 6]: 646 (432, 967) μg*hr ml^−1
- Pazopanib Cmax [2, 6]: 32 (21.9, 46.9) μg ml^−1
- Pazopanib AUC(0–24) [2, 7]: 1027 µg·h/mL
- Pazopanib Cmax [2, 7]: 57.4 µg/mL
- Change in mean AUC0–24 of pazopanib with a two-fold increase in pazopanib dose ([2]; pazopanib 400–800 mg per day): less than two-fold increase
- Change in mean Cmax of pazopanib with a two-fold increase in pazopanib dose ([2]; pazopanib 400–800 mg per day): less than two-fold increase
Molecule: 5-((4-((2,3-dimethyl-2H-indazol-6-yl)methylamino]-2-pyrimidinyl)amino)-2-methyl-benzenesulfonamide [pazopanib]
- Recommended phase II dosing [1]: 800 mg

- Inhibition of CYP2C8 (classification) (CYP2C8): weak inhibitors
- Inhibition of CYP3A4 (classification) (CYP3A4): weak inhibitors
- Lapatinib Cmax [2, 6]: 1.95 (1.13, 3.37) μg ml^−1
- AUC(0-t) ([2]; oral, day 15 of cycle 1, paclitaxel 50 mg m^−2, pazopanib 400 mg, lapatinib 1000 mg, n=6, geometric mean (95% confidence interval)): 20 µg·h/mL
- AUC(0-t) ([2]; oral, day 15 of cycle 1, paclitaxel 50 mg m^−2, pazopanib 800 mg, lapatinib 1000 mg, n=3, median (range)): 51.4 µg·h/mL
- AUC(0-t) ([2]; oral, day 15 of cycle 1, paclitaxel 80 mg m^−2, pazopanib 400 mg, lapatinib 1000 mg, n=9, geometric mean (95% confidence interval)): 27.1 µg·h/mL
- AUC(0-t) ([2]; oral, day 15 of cycle 1, paclitaxel 80 mg m^−2, pazopanib 800 mg, lapatinib 1000 mg, n=1, individual value): 11.6 µg·h/mL
- Cmax ([2]; oral, Lapatinib Cmax, day 15 of cycle 1, paclitaxel 50 mg m^−2, pazopanib 400 mg, lapatinib 1000 mg, n=6, geometric mean (95% confidence interval)): 1270 ng/mL
- Increase in AUC0–24 of lapatinib on increasing paclitaxel from 50 to 80 mg m^−2 [2, 8]: 1.4 fold
- Increase in Cmax of lapatinib on increasing paclitaxel from 50 to 80 mg m^−2 [2, 8]: 1.5 fold
Molecule: CS(=O)(=O)CCNCc1ccc(-c2ccc3ncnc(Nc4ccc(OCc5cccc(F)c5)c(Cl)c4)c3c2)o1 [lapatinib]
- Recommended phase II dosing [1]: 1500 mg

- Paclitaxel CL ([2]; day 15, 50 mg m^−2 paclitaxel+400 mg pazopanib+1000 mg lapatinib, n=4, geometric mean (95% confidence interval)): 16.3 (14.8, 17.9) l h^−1 m^−2
- Paclitaxel CL ([2]; day 15, 50 mg m^−2 paclitaxel+800 mg pazopanib+1000 mg lapatinib, n=3, median (range)): 16.3 (14.9, 20.3) l h^−1 m^−2
- Paclitaxel CL ([2]; day 15, 80 mg m^−2 paclitaxel+400 mg pazopanib+1000 mg lapatinib (MTR), n=9, geometric mean (95% confidence interval)): 15.3 (13.2, 17.8) l h^−1 m^−2
- Paclitaxel CL ([2]; day 15, 80 mg m^−2 paclitaxel+800 mg pazopanib+1000 mg lapatinib, n=1, individual value): 18.3 l h^−1 m^−2
- half-life ([2]; intravenous): 14.8 h
- AUC(0-inf) ([2]; intravenous, 50 mg m^−2): 2.15 µg·h/mL
- Cmax ([2]; intravenous, 50 mg m^−2): 1440 ng/mL
- half-life ([2]; intravenous, 50 mg m^−2): 11.7 h
- Cmax ([2]; intravenous, 50 mg m^−2, Paclitaxel Cmax, day 1 (pazopanib and lapatinib withheld), 50 mg m^−2 paclitaxel+800 mg pazopanib+1000 mg lapatinib, n=3, median (range)): 1270 ng/mL
- AUC(0-inf) ([2]; intravenous, 80 mg m^−2): 3.82 µg·h/mL
- Cmax ([2]; intravenous, 80 mg m^−2): 2290 ng/mL
- Cmax ([2]; intravenous, 80 mg m^−2, Paclitaxel Cmax, day 1 (pazopanib and lapatinib withheld), 80 mg m^−2 paclitaxel+800 mg pazopanib+1000 mg lapatinib, n=3, median (range)): 3320 ng/mL
- AUC(0-inf) ([2]; intravenous, Paclitaxel AUC(0-∞), day 15, 50 mg m^−2 paclitaxel+800 mg pazopanib+1000 mg lapatinib, n=3, median (range)): 3.06 µg·h/mL
- AUC(0-inf) ([2]; intravenous, Paclitaxel AUC(0-∞), day 15, 80 mg m^−2 paclitaxel+400 mg pazopanib+1000 mg lapatinib (MTR), n=9, geometric mean (95% confidence interval)): 5.23 µg·h/mL
- AUC(0-inf) ([2]; intravenous, Paclitaxel AUC(0–∞), day 15, 50 mg m^−2 paclitaxel+400 mg pazopanib+1000 mg lapatinib, n=4, geometric mean (95% confidence interval)): 3.07 µg·h/mL
- AUC(0-inf) ([2]; intravenous, Paclitaxel AUC(0–∞), day 15, 80 mg m^−2 paclitaxel+800 mg pazopanib+1000 mg lapatinib, n=1, individual value): 4.37 µg·h/mL
- Cmax ([2]; intravenous, Paclitaxel Cmax, day 15, 50 mg m^−2 paclitaxel+400 mg pazopanib+1000 mg lapatinib, n=5, geometric mean (95% confidence interval)): 2330 ng/mL
- Cmax ([2]; intravenous, Paclitaxel Cmax, day 15, 50 mg m^−2 paclitaxel+800 mg pazopanib+1000 mg lapatinib, n=3, median (range)): 1720 ng/mL
- Cmax ([2]; intravenous, Paclitaxel Cmax, day 15, 80 mg m^−2 paclitaxel+800 mg pazopanib+1000 mg lapatinib, n=1, individual value): 2710 ng/mL
Molecule: CC(=O)O[C@H]1C(=O)[C@@]2(C)[C@H]([C@H](OC(=O)c3ccccc3)[C@]3(O)C[C@H](OC(=O)[C@H](O)[C@@H](NC(=O)c4ccccc4)c4ccccc4)C(C)=C1C3(C)C)[C@]1(OC(C)=O)CO[C@@H]1C[C@@H]2O [paclitaxel]
- Increase in Cmax of paclitaxel relative to paclitaxel alone [3]: 36%
- Increase in geometric mean AUC of paclitaxel relative to paclitaxel alone [3]: 26%

Source: article PMC4037836 (British Journal of Cancer, 2014)
